# “And” between values parts separate entries of the source, which are not always exact repeats. Equal entries are not always repeated.
# Key:
# T. rubrum = experiment: Broth dilution antifungal susceptibility testing (CLSI M38-P), T. rubrum; assay type: cell-based, Trichophyton rubrum; conditions: for MIC versus T. rubrum: T. rubrum cultures
# Experimental: (§1) Broth Dilution Antifungal Susceptibility Testing
# (§2) The sensitivity of relevant fungal strains to the cyclized peptides was determined using Clinical Laboratory Standard Institute (CLSI; formerly NCCLS) Approved Standards. Fungal susceptibility was tested using “Reference Method for Broth Dilution Antifungal Susceptibility Testing of Filamentous Fungi; Approved Standard M38-P”, and yeast susceptibility was tested using “Reference Method for Broth Dilution Antifungal Susceptibility Testing of Yeasts; Approved Standard—Second Edition M27-A”.
# T. rubrum susceptibility to peptides 1-8 was tested.
# T. interdigitale = experiment: Broth dilution antifungal susceptibility testing, T. interdigitale; assay type: cell-based, Trichophyton interdigitale; conditions: for Activity towards T. interdigitale: in words
# Experimental: as §1, §2
# T. interdigitale susceptibility to peptides 2-8 was tested. Peptides 2, 4 and 6 were active towards T. interdigitale.
# C. neoformans = experiment: Broth dilution antifungal susceptibility testing of yeasts (M27-A), C. neoformans; assay type: cell-based, Cryptococcus neoformans
# Experimental: as §1, §2
# C. neoformans susceptibility to peptides 4 and 6-8 was tested using “Reference Method for Broth Dilution Antifungal Susceptibility Testing of Yeasts; Approved Standard—Second Edition M27-A”.
# E. coli = experiment: Broth dilution antibacterial susceptibility testing (CLSI M7-A7), E. coli; assay type: cell-based; conditions: for MIC versus E. coli: growth over 16 hours at 37° C.
# Experimental: (§3) Broth Dilution Antibacterial Susceptibility Testing
# (§4) The sensitivity of relevant bacterial strains to the cyclized peptides was determined using Clinical Laboratory Standard Institute (CLSI; formerly NCCLS) Approved Standards. Bacterial susceptibility was tested using “Methods for Dilution Antimicrobial Susceptibility Tests for Bacteria That Grow […]; Approved Standard—Seventh Edition M7-A7”
# (§5) Cultures of E. coli and Staphylococcus aureus were exposed to Peptide 1 and the MIC after growth over the following 16 hours at 37° C. was 1 mM for both organisms (Table 2).
# S. aureus = experiment: Broth dilution antibacterial susceptibility testing (CLSI M7-A7), S. aureus; assay type: cell-based, Staphylococcus aureus
# Experimental: as §3, §4, §5
# T. mentagrophytes = experiment: Broth dilution antifungal susceptibility testing, T. mentagrophytes; assay type: cell-based, Trichophyton mentagrophytes
# Experimental: as §1, §2
# M. furfur = experiment: Broth dilution antifungal susceptibility testing, M. furfur; assay type: cell-based, Malassezia furfur; conditions: M. furfur DSM6170
# Experimental: as §1, §2
# S. brevicaulis = experiment: Broth dilution antifungal susceptibility testing, S. brevicaulis; assay type: cell-based, Scopulariopsis brevicaulis
# Experimental: as §1, §2
# A. niger = experiment: Broth dilution antifungal susceptibility testing, A. niger; assay type: cell-based; conditions: A. niger NCPF2022
# Experimental: as §1, §2
# A. terreus = experiment: Broth dilution antifungal susceptibility testing, A. terreus; assay type: cell-based; conditions: A. terreus NCPF2729
# Experimental: as §1, §2
# Fusarium oxysporum = experiment: Broth dilution antifungal susceptibility testing, Fusarium oxysporum; assay type: cell-based; conditions: Fusarium oxysporum NCPF2722
# Experimental: as §1, §2
# Fusarium spp = experiment: Broth dilution antifungal susceptibility testing, Fusarium spp; assay type: cell-based
# Experimental: as §1, §2
# C. albicans = experiment: Broth dilution antifungal susceptibility testing of yeasts, C. albicans; assay type: cell-based
# Experimental: as §1, §2
# C. krusei = experiment: Broth dilution antifungal susceptibility testing of yeasts, C. krusei; assay type: cell-based
# Experimental: as §1, §2
# C. parapsilosis = experiment: Broth dilution antifungal susceptibility testing of yeasts, C. parapsilosis; assay type: cell-based
# Experimental: as §1, §2
# Ps. aeruginosa = experiment: Broth dilution antibacterial susceptibility testing, Ps. aeruginosa; assay type: cell-based
# Experimental: as §3, §4
# B. cepacia = experiment: Broth dilution antibacterial susceptibility testing, B. cepacia; assay type: cell-based, Burkholderia cepacia; conditions: B. cepacia ATCC25609
# Experimental: as §3, §4
# P. acnes = experiment: Broth dilution antibacterial susceptibility testing, P. acnes; assay type: cell-based; conditions: P. acnes DSMZ1897
# Experimental: as §3, §4
# S. epidermidis = experiment: Broth dilution antibacterial susceptibility testing, S. epidermidis; assay type: cell-based, Staphylococcus epidermidis; conditions: S. epidermidis ATCC12228
# Experimental: as §3, §4
# C. difficile = experiment: Broth dilution antibacterial susceptibility testing, C. difficile; assay type: cell-based, Clostridium difficile; conditions: C. difficile NCTC11209
# Experimental: as §3, §4
substance,measurement,setting,value
Cyclic-DK-DK-DK-DK-DK-DK-DK-G [Peptide 8],MIC versus T. rubrum,T. rubrum,> 4000 µM
same,MIC versus T. interdigitale,T. interdigitale,>4000 µM
same,MIC versus C. neoformans,C. neoformans,500 µM
Cyclic-DO-DO-DO-DO-DO-DO-DO-G [Peptide 7],MIC versus T. rubrum,T. rubrum,>4000 µM
same,MIC versus T. interdigitale,T. interdigitale,>4000 µM
same,MIC versus C. neoformans,C. neoformans,2000 µM
Cyclic-DR-DR-DR-DR-DR-DR-DR-G [Peptide 6],MIC versus T. rubrum,T. rubrum,1000 µM
same,MIC versus T. interdigitale,T. interdigitale,250 µM
same,Activity towards T. interdigitale,T. interdigitale,active
same,MIC versus C. neoformans,C. neoformans,500 µM
Cyclic-K-K-K-K-K-K-K [Peptide 1],MIC versus T. rubrum,T. rubrum,100 µM
same,MIC versus E. coli,E. coli,1000 µM
same,MIC versus S. aureus,S. aureus; growth over 16 hours at 37° C.,1000 µM
Cyclic-K-K-K-K-K-K-K-G [Peptide 3],MIC versus T. rubrum,T. rubrum,4000 µM
same,MIC versus T. interdigitale,T. interdigitale,>4000 µM
Cyclic-O-O-O-O-O-O-O-G [Peptide 5],MIC versus T. rubrum,T. rubrum,4000 µM
same,MIC versus T. interdigitale,T. interdigitale,>4000 µM
Cyclic-R-R-R-R-R-R-R [Peptide 2],MIC,T. rubrum; T. rubrum 7 Clinical Isolates,500 to 1000 µM
same,MIC,T. rubrum; T. rubrum NCPF118,250 µM
same,MIC versus T. rubrum,T. rubrum,250 µM and 200 µM
same,MIC versus T. interdigitale,T. interdigitale,<125 µM
same,MIC,T. interdigitale; T. interdigitale NCPF335,<125 µM
same,Activity towards T. interdigitale,T. interdigitale,active
same,MIC,E. coli; E. coli NCTC12900,100 µM
same,MIC,"E. coli; E. coli, No strain designation",100 µM
same,MIC versus E. coli,E. coli,100 µM
same,MIC,S. aureus; S. aureus 16 Clinical Isolates,>3800 µM
same,MIC,"S. aureus; S. aureus ANS46, MRSA",950 µM
same,MIC,S. aureus; S. aureus ATCC12598,950 µM
same,MIC,S. aureus; S. aureus ATCC25923,>100 µM
same,MIC,"S. aureus; S. aureus Col, MRSA",950 µM
same,MIC,"S. aureus; S. aureus MW2, MRSA",950 µM
same,MIC,"S. aureus; S. aureus N315, MRSA",950 µM
same,MIC,"S. aureus; S. aureus NCTC6571, MSSA",>1900 µM
same,MIC,S. aureus; S. aureus NCTC8325,>1900 µM
same,MIC,"S. aureus; S. aureus NCTC10442, MRSA",250 µM
same,MIC,S. aureus; S. aureus NCTC10788,>1900 µM
same,MIC,"S. aureus; S. aureus, No strain designation",250 µM
same,MIC,T. mentagrophytes; T. mentagrophytes DM2006 978,500 µM
same,MIC,T. mentagrophytes; T. mentagrophytes DM2006 1023,500 µM
same,MIC,M. furfur,0.031 mM
same,MIC,S. brevicaulis; S. brevicaulis DM2006 1025,500 µM
same,MIC,S. brevicaulis; S. brevicaulis NCPF2177,500 µM
same,MIC,A. niger,500 µM
same,MIC,A. terreus,>2000 µM
same,MIC,Fusarium oxysporum,>2000 µM
same,MIC,Fusarium spp; Fusarium spp DM2006 294,>2000 µM
same,MIC,Fusarium spp; Fusarium spp DM2006 495,>2000 µM
same,MIC,Fusarium spp; Fusarium spp DM2006 1026,>2000 µM
same,MIC,C. albicans; C. albicans AM2003-020,>2000 µM
same,MIC,C. albicans; C. albicans ATCC24433,>2000 µM
same,MIC,C. albicans; C. albicans ATCC90028,>2000 µM
same,MIC,C. albicans; C. albicans IHEM3742,>2000 µM
same,MIC,C. albicans; C. albicans NCTC3179,>2000 µM
same,MIC,C. albicans; C. albicans s20122.073,>2000 µM
same,MIC,C. krusei; C. krusei ATCC6258,125 µM
same,MIC,C. krusei; C. krusei NCPT3953,128 to 256 µM
same,MIC,C. parapsilosis; C. parapsilosis ATCC22019,250 µM
same,MIC,C. parapsilosis; C. parapsilosis ATCC90018,1000 µM
same,MIC,"Ps. aeruginosa; Ps. aeruginosa ATCC27853 (first entry, r42)",>1900 µM
same,MIC,"Ps. aeruginosa; Ps. aeruginosa ATCC27853 (second entry, r44)",>2000 µM
same,MIC,Ps. aeruginosa; Ps. aeruginosa DSM50071,>2000 µM
same,MIC,B. cepacia,>1900 µM
same,MIC,P. acnes,125 µM
same,MIC,S. epidermidis,25 µM
same,MIC,C. difficile,>2000 µM
Cyclic-R-R-R-R-R-R-R-G [Peptide 4],MIC versus T. rubrum,T. rubrum,2000 µM
same,MIC versus T. interdigitale,T. interdigitale,500 µM
same,Activity towards T. interdigitale,T. interdigitale,active
same,MIC versus C. neoformans,C. neoformans,1000 µM

# From US9181303B2, “Treatment of bacterial infections with cyclic antimicrobial peptides” (N[…], priority 2005, dated 2015)
